Test results: US20230365585A1, “BENZODIAZEPINE DERIVATIVES USEFUL IN TREATING A RESPIRATORY SYNCYTIAL VIRUS INFECTION” (priority 2020, published 2023)

Assays:
Hep-G2 cells = experiment: Cell cytotoxicity CC50; format: cell-based; conditions: mean of at least two experiments
From the text: (§1) Plates were scanned and analysed using the Immunospot S6 Macro analyser, which is equipped with BioSpot analysis software for counting immunostained plaques (virospots). Plaque counts were used to calculate % infection relative to the mean of the plaque count in the virus control wells for RSV. […] Plaque EC50 and cell toxicity CC50 values are a mean of at least two experiments and figures are rounded to whole units.

RSV A2 = experiment: RSV plaque reduction assay; format: cell-based, RSV (RSV A2 ECACC, 0709161v); conditions: Hep-G2 cells, RSV A2, 2 days, mean of at least two experiments
Method: Compounds were subjected to RSV plaque reduction assays according to the following protocol.
Hep-G2 cells (ECACC, 85011430) were passaged in flasks and seeded in 24-well plates in DMEM containing antibiotics and supplemented with 10% FBS. During inoculation and subsequent incubation, cells were cultured in DMEM containing 2% FBS. 100 plaque forming unit/well of RSV (RSV A2 ECACC, 0709161v) was mixed with eight serial dilutions of compound. Subsequently, 100 µL of the virus/compound mixtures was added to confluent Hep-G2 cell monolayers. The cells and virus/compound mixtures were incubated at 37° C. in a humidified 5% CO2 incubator for 2 h prior to removal of the inoculum and addition of 1 mL of overlay (DMEM containing 2% FBS and 0.8% CMC) containing compound dilutions. The cells and were incubated at 37° C. in a humidified 5% CO2 incubator for 2 days.
Cells were washed with PBS before adding 75%/25% v/v EtOH/MeOH, for 3 min. Fix ative was removed and plates were washed with PBS. A pre-titrated amount of the primary antibody was added in 200 µL PBS/2% milk powder, and plates incubated for 90 min at 37° C. The plates were washed 3 times with PBS/0.05% Tween20 before addition of rabbit anti-goat horse radish peroxidase in 200 µL PBS/2% milk powder, and incubated for 1 h at 37° C. Following three wash steps with PBS/0.05% Tween20, 200 µL ready-to-use TrueBlue was added and plates were incubated at rt for 10-15 min before washing with water. After removal of water, plates were air-dried in the dark.
as §1

Cell cytotoxicity CC50 = format: cell-based; conditions: human; mean of at least two experiments
From the text: as §1

[1] = human respiratory syncytial virus, HepG2, 48 h

| Compound | CC50 (Hep-G2 cells) [nM] | EC50 (RSV A2) [nM] | CC50 (Cell cytotoxicity CC50) [nM] | EC50 (RSV A2; [1]) [nM] |
| --- | --- | --- | --- | --- |
| CCC1CCCn2nc(-c3ccc(C)nc3)c(C(=O)N[C@H]3N=C(c4ccccc4)c4ccccc4NC3=O)c2O1 (single isomer, unassigned) [Example 26-2, (5S*)-5-ethyl-2-(6-methylpyridin-3-yl)-N-[(3S)-2-oxo-5-phenyl-2,3-dihydro-1H-1,4-benzodiazepin-3-yl]-5H,6H,7H,8H-pyrazolo[3,2-b][1,3]oxazepine-3-carboxamide] | > 25000 | 329 |  |  |
| 2-(2,4-Difluorophenyl)-5-methyl-N-[(3S)-2-oxo-5-phenyl-1,3-dihydro-1,4-benzodiazepin-3-yl]-5,6,7,8-tetrahydropyrazolo[5,1-b][1,3]oxazepine-3-carboxamide [Example 16] | > 25000 | 64 |  |  |
| CC(C)Nc1ccc(-c2nn3c(c2C(=O)N[C@H]2N=C(c4ccccc4)c4ccccc4NC2=O)OC(C)CCC3)c(F)n1 (single isomer, unassigned) [Example 12-2, (5S*)-2-[2-fluoro-6-(propan-2-ylamino)pyridin-3-yl]-5-methyl-N-[(3S)-2-oxo-5-phenyl-1,3-dihydro-1,4-benzodiazepin-3-yl]-5,6,7,8-tetrahydropyrazolo[5,1-b][1,3]oxazepine-3-carboxamide] | > 25000 | 33 |  |  |
| CC1CCCn2nc(-c3ccc(F)cc3F)c(C(=O)N[C@H]3N=C(c4ccccc4)c4cccc(F)c4NC3=O)c2O1 (single isomer, unassigned) [Example 17-2, (5S*)-2-(2,4-difluorophenyl)-N-[(3S)-9-fluoro-2-oxo-5-phenyl-1,3-dihydro-1,4-benzodiazepin-3-yl]-5-methyl-5,6,7,8-tetrahydropyrazolo[5,1-b][1,3]oxazepine-3-carboxamide] | > 25000 | 20 |  |  |
| CC1CCCn2nc(-c3ccc(F)cc3F)c(C(=O)N[C@H]3N=C(c4ccccc4)c4ccccc4NC3=O)c2O1 (single isomer, unassigned) [Example 16-2, (5S*)-2-(2,4-difluorophenyl)-5-methyl-N-[(3S)-2-oxo-5-phenyl-1,3-dihydro-1,4-benzodiazepin-3-yl]-5,6,7,8-tetrahydropyrazolo[5,1-b][1,3]oxazepine-3-carboxamide] | > 25000 | 39 |  |  |
| CCNc1ccc(-c2nn3c(c2C(=O)N[C@H]2N=C(c4ccccc4)c4ccccc4NC2=O)OC(C)CCC3)c(F)n1 (single isomer, unassigned) [Example 10-2, (5S*)-2-[6-(ethylamino)-2-fluoropyridin-3-yl]-5-methyl-N-[(3S)-2-oxo-5-phenyl-1,3-dihydro-1,4-benzodiazepin-3-yl]-5,6,7,8-tetrahydropyrazolo[5,1-b][1,3]oxazepine-3-carboxamide] | > 25000 | 24 |  |  |
| CCC1CCCn2nc(-c3ccc(C)nc3)c(C(=O)N[C@H]3N=C(c4ccccc4)c4cccc(F)c4NC3=O)c2O1 (single isomer, unassigned) [Example 27-2, (5S*)-5-ethyl-N-[(3S)-9-fluoro-2-oxo-5-phenyl-2,3-dihydro-1H-1,4-benzodiazepin-3-yl]-2-(6-methylpyridin-3-yl)-5H,6H,7H,8H-pyrazolo[3,2-b][1,3]oxazepine-3-carboxamide] | > 25000 | 259 |  |  |
| CC1CCCOc2c(C(=O)NC3N=C(c4ccccc4)c4cccc(F)c4NC3=O)c(-c3ccccc3F)nn21 (single isomer, unassigned) [Example 15-2, (8S*)-N-(9-fluoro-2-oxo-5-phenyl-1,3-dihydro-1,4-benzodiazepin-3-yl)-2-(2-fluorophenyl)-8-methyl-5,6,7,8-tetrahydropyrazolo[5,1-b][1,3]oxazepine-3-carboxamide] | > 25000 | 37 |  |  |
| CC(C)Nc1ccc(-c2nn3c(c2C(=O)N[C@H]2N=C(c4ccccc4)c4ccccc4NC2=O)OC(C)CCC3)c(F)n1 (stereo partly drawn) [Example 12, 2-[2-Fluoro-6-(propan-2-ylamino)pyridin-3-yl]-5-methyl-N-[(3S)-2-oxo-5-phenyl-1,3-dihydro-1,4-benzodiazepin-3-yl]-5,6,7,8-tetrahydropyrazolo[5,1-b][1,3]oxazepine-3-carboxamide] |  |  | > 25000 | 34 |
| CC1CCCOc2c(C(=O)NC3N=C(c4ccccc4)c4ccccc4NC3=O)c(-c3ccccc3F)nn21 (single isomer, unassigned) [Example 14-2, (8S*)-2-(2-Fluorophenyl)-8-methyl-N-(2-oxo-5-phenyl-1,3-dihydro-1,4-benzodiazepin-3-yl)-5,6,7,8-tetrahydropyrazolo[5,1-b][1,3]oxazepine-3-carboxamide] | > 25000 | 60 |  |  |
| CC(C)Nc1ccc(-c2nn3c(c2C(=O)N[C@H]2N=C(c4ccccc4)c4ccccc4NC2=O)OC(C)CCC3)c(F)n1 (single isomer, unassigned) [Example 12-1, (5R*)-2-[2-fluoro-6-(propan-2-ylamino)pyridin-3-yl]-5-methyl-N-[(3S)-2-oxo-5-phenyl-1,3-dihydro-1,4-benzodiazepin-3-yl]-5,6,7,8-tetrahydropyrazolo[5,1-b][1,3]oxazepine-3-carboxamide] |  |  | > 25000 | 35 |
| CCC1CCCn2nc(-c3ccc(C)nc3)c(C(=O)N[C@H]3N=C(c4ccccc4)c4cccc(F)c4NC3=O)c2O1 (stereo partly drawn) [Example 27, 5-Ethyl-N-[(3 S)-9-fluoro-2-oxo-5-phenyl-1,3-dihydro-1,4-benzodiazepin-3-yl]-2-(6-methylpyridin-3-yl)-5,6,7,8-tetrahydropyrazolo[5,1-b][1,3]oxazepine-3-carboxamide] |  |  | > 25000 | 394 |
| O=C(N[C@H]1N=C(c2ccccc2)c2cccc(F)c2NC1=O)c1c(-c2ccccc2F)nn2c1O[C@H]1CC[C@@H]2C1 (single isomer, unassigned) [Example 19-2, (1R*,8S*)-N-[(3 S)-9-fluoro-2-oxo-5-phenyl-2,3-dihydro-1H-1,4-benzodiazepin-3-yl]-4-(2-fluorophenyl)-7-oxa-2,3-diazatricyclo[6.2.1.0^2,6]undeca-3,5-diene-5-carboxamide] |  |  | > 25000 | 53 |
| CC(C)Nc1ccc(-c2nn3c(c2C(=O)N[C@H]2N=C(c4ccccc4)c4cccc(F)c4NC2=O)OC(C)CCC3)c(F)n1 (single isomer, unassigned) [Example 13-2, (5S*)-N-[(3S)-9-fluoro-2-oxo-5-phenyl-1,3-dihydro-1,4-benzodiazepin-3-yl]-2-[2-fluoro-6-(propan-2-ylamino)pyridin-3-yl]-5-methyl-5,6,7,8-tetrahydropyrazolo[5,1-b][1,3]oxazepine-3-carboxamide] | > 25000 | 23 |  |  |
| CC1CCCn2nc(-c3ccccc3F)c(C(=O)N[C@H]3N=C(c4ccccc4)c4ccccc4NC3=O)c2O1 (stereo partly drawn) [Example 18, 2-(2-Fluorophenyl)-5-methyl-N-[(3S)-2-oxo-5-phenyl-1,3-dihydro-1,4-benzodiazepin-3-yl]-5,6,7,8-tetrahydropyrazolo[5,1-b][1,3]oxazepine-3-carboxamide] |  |  | > 25000 | 37 |
| CCC1CCCn2nc(-c3ccccc3F)c(C(=O)N[C@H]3N=C(c4ccccc4)c4ccccc4NC3=O)c2O1 (single isomer, unassigned) [Example 24-2, (5S*)-5-ethyl-2-(2-fluorophenyl)-N-[(3S)-2-oxo-5-phenyl-2,3-dihydro-1H-1,4-benzodiazepin-3-yl]-5H,6H,7H,8H-pyrazolo[3,2-b][1,3]oxazepine-3-carboxamide] | > 25000 | 89 |  |  |
| O=C(N[C@H]1N=C(c2ccccc2)c2cccc(F)c2NC1=O)c1c(-c2ccccc2F)nn2c1S(=O)(=O)CCCC2 [Example 21, N-[(3S)-9-fluoro-2-oxo-5-phenyl-2,3-dihydro-1H-1,4-benzodiazepin-3-yl]-2-(2-fluorophenyl)-4,4-dioxo-5H,6H,7H,8H-4λ^6-pyrazolo[3,2-b][1,3]thiazepine-3-carboxamide] |  |  | > 25000 | 377 |
| CCC1CCCn2nc(-c3ccccc3F)c(C(=O)N[C@H]3N=C(c4ccccc4)c4cccc(F)c4NC3=O)c2O1 (single isomer, unassigned) [Example 25-2, (5S*)-5-ethyl-2-(2-fluorophenyl)-N-[(3S)-9-fluoro-2-oxo-5-phenyl-1,3-dihydro-1,4-benzodiazepin-3-yl]-5,6,7,8-tetrahydropyrazolo[5,1-b][1,3]oxazepine-3-carboxamide] | > 25000 | 83 |  |  |
